The results in this text go back to patent US20080280945A1, “Crystalline forms of an HIV integrase inhibitor” (priority 2007, published 2008).

In brackets after ≈: the same amount, converted by molar mass.

The subject of series [1] is acute HIV infection of T-lymphoid cells. Put plainly: inhibition of acute HIV infection of T-lymphoid cells (Vacca et al.). It counts as cell-based. As to conditions: n=6.
Series [2] in a line: thermal stability studies, 2 weeks storage, HPLC and XRPD. The conditions noted are these: for Loss at 40° C., 75% RH / Loss at 60° C., ambient RH: 2 weeks storage, HPLC, NLQ = no loss greater than the limit of quantitation. It counts as physicochemical. The method, then:
One set of samples of the amorphous, crystalline ethanolate, crystalline hydrate, and crystalline anhydrate forms of Isomer M were stored in a GMP stability chamber at 40° C. and 75% relative humidity (RH) and another set of analogous samples was stored at 60° C. and ambient RH in a Vacuum Oven, NAPCO (National Appliance Company) Model 5831. The samples were analyzed by XRPD and by HPLC before and after 2 weeks storage. HPLC conditions: column=Symmetry Shield RP18 15 cm×4.6 mm (Waters Corporation) with 3.5 μm particle size; temperature=25° C., UV detection at λ=220 nm; flow rate=1 mL/minute; injection volume=10 μL; mobile phase=initial conditions at 20% acetonitrile and 80% 0.1% phosphate buffer with a gradient from 20% acetonitrile to 35% acetonitrile in 8 minutes, hold at 35% acetonitrile for 5 minutes, from 35% to 60% acetonitrile in 13 minutes, from 60% to 90% acetonitrile in 10 minutes (run time: 36 minutes, equilibration time: 10 minutes).

Series [3] in a line: solubility in water at 25° C. (ReactArray ST system, HPLC). It counts as physicochemical. The conditions noted are these: for Solubility: equilibrated 24 h, average of last four hours, mean ± SE of 4 samples (amorphous: 1 sample); for Comment (form of excess solid): excess solid after solubility experiment. The method, then: The solubilities of crystalline ethanolate, crystalline hydrate and crystalline anhydrate were determined in water at 25° C. using a ReactArray ST™ system (Anachem, UK). Approximately 50 mg of material was transferred to a sample tube and 1.5 mL of water was added to it. The tubes were mounted on a temperature control block and the slurry was stirred at 400 rpm using a magnetic stir bar. The solution was equilibrated for 24 hours following which the concentration was monitored every hour for 6 hours.
HPLC conditions: column=C18 Bridge column (Waters Corporation), 4.6 mm×50 mm and 2.5 μm particle size; temperature=25° C., UV detection at λ=220 nm; flow rate=1 mL/minute; injection volume=5 μL; mobile phase=initial conditions at 20% acetonitrile and 80% 0.1% phosphate buffer with a gradient from 20% acetonitrile to 95% acetonitrile in 3 minutes, hold at 95% acetonitrile for 3 minutes, then from 95% to 20% acetonitrile in 0.1 minute (run time: 7 minutes), followed by 1 minute conditioning.

Setting [4] is: after 2 weeks at 60° C., ambient RH.

In the case of `CN1C[C@H](O)C(C)(C)Cn2c(c3c(c(O)c2=O)C(=O)N(Cc2ccc(F)c(Cl)c2)CC3)C1=O` [Isomer M, M-(4R)-11-(3-chloro-4-fluorobenzyl)-4,9-dihydroxy-2,5,5-trimethyl-3,4,5,6,12,13-hexahydro-2H[1,4]diazocino[2,1-a]-2,6-naphthyridine-1,8,10(11H)-trione], the IC95 in series [1] (in the presence of 10% FBS) is listed as 15.6±0 1M; in series [1] (in the presence of 50% human serum), 51.7±16.

With `CN1C[C@H](O)C(C)(C)Cn2c(c3c(c(O)c2=O)C(=O)N(Cc2ccc(F)c(Cl)c2)CC3)C1=O` [Crystalline anhydrate, M-(4R)-11-(3-chloro-4-fluorobenzyl)-4,9-dihydroxy-2,5,5-trimethyl-3,4,5,6,12,13-hexahydro-2H[1,4]diazocino[2,1-a]-2,6-naphthyridine-1,8,10(11H)-trione anhydrate], in series [2], the “Loss at 40° C., 75% RH” value is “NLQ” and the “Loss at 60° C., ambient RH” value is recorded as “NLQ”. In addition, the “XRPD (form change)” value in series [2] (after 2 weeks at 40° C., 75% RH) is “no detectable change”. In addition, the “XRPD (form change)” value in series [2] (setting [4]) is “no detectable change”. In addition, in series [3], the Solubility is given as 0.124 (±0.010) mg/mL and the “Comment (form of excess solid)” value was “Excess solid is anhydrate”.

Turning to `CN1C[C@H](O)C(C)(C)Cn2c(c3c(c(O)c2=O)C(=O)N(Cc2ccc(F)c(Cl)c2)CC3)C1=O` [Crystalline ethanolate, M-(4R)-11-(3-chloro-4-fluorobenzyl)-4,9-dihydroxy-2,5,5-trimethyl-3,4,5,6,12,13-hexahydro-2H[1,4]diazocino[2,1-a]-2,6-naphthyridine-1,8,10(11H)-trione ethanolate], in series [2], the “Loss at 40° C., 75% RH” value is 0.3 A % and the “Loss at 60° C., ambient RH” value worked out at 11.5 A %. Further, the “XRPD (form change)” value in series [2] (setting [4]) is recorded as “no detectable change”. In series [3], the Solubility was 0.071 (±0.002) mg/mL and the “Comment (form of excess solid)” value is recorded as “Excess solid converts to hydrate”.

With `CN1C[C@H](O)C(C)(C)Cn2c(c3c(c(O)c2=O)C(=O)N(Cc2ccc(F)c(Cl)c2)CC3)C1=O` [Amorphous, M-(4R)-11-(3-chloro-4-fluorobenzyl)-4,9-dihydroxy-2,5,5-trimethyl-3,4,5,6,12,13-hexahydro-2H[1,4]diazocino[2,1-a]-2,6-naphthyridine-1,8,10(11H)-trione], in series [2], the “Loss at 40° C., 75% RH” value is given as 8.9 A %. Besides, in series [3], the Solubility was found to be 0.83 mg/mL (≈ 1740 µM) and the “Comment (form of excess solid)” value is on record as “Excess solid is amorphous”.
